Laboratory results reported in US7687508B2, “Cyclic derivatives as modulators of chemokine receptor activity” (Bristol-Myers Squibb Company, priority 2006, dated 2010).

Key:
human CCR2 [1] = target: T1, human CCR2 (Homo sapiens, UniProt P41597); experiment: THP-1 binding (CCR2, 125I-human MCP-1 tracer); parameters: THP-1 human monocytic leukemic cell line, which expresses endogenous CCR2; endogenous in cells; host or cells: THP-1 human monocytic leukemia cells; conditions: metabolite examples; THP-1 cells, 125I-MCP-1
T1 sequence (P41597 1-360 isoform P41597-2): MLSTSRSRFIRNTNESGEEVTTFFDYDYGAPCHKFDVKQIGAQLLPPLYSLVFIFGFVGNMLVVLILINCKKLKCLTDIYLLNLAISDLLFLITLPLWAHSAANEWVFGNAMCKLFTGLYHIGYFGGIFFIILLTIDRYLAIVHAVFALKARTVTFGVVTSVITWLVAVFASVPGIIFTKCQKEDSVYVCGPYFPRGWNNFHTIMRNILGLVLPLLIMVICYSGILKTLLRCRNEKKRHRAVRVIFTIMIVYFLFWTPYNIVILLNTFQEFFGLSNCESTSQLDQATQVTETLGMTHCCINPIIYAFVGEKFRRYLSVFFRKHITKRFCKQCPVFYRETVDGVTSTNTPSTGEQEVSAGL
Procedure: The human CCR2 binding assay was also established with the THP-1 human monocytic leukemic cell line, which expresses endogenous CCR2, using 125I-human MCP-1 as the tracer ligand. Radioligand competition binding assays were used for assessment of binding affinity of test compounds to the CCR2 receptor. For radioligand competition studies, 100 μl containing 2.5×10^5 THP-1 cells/well (in assay buffer containing 50 mM HEPES, pH7.4, 5 mM MgCl2, 1 mM CaCl2 and 0.5% BSA) were added to 96-well assay plates containing test compound in 3-fold serial dilution, with final concentrations ranging from […]. Subsequently, 50 μl ^125I-MCP-1 radioligand at a final concentration of 0.2 nM in assay buffer were added to the reaction. After a 90 minute incubation period at room temperature, the binding reaction was terminated by harvesting on GF/B filter plates (PerkinElmer Cat. No. 6005177) followed by washing with ice-cold wash buffer (50 mM HEPES, pH 7.4, 0.1% BSA, 0.5 M NaCl) to remove unbound ligand. After washing, the plate was dried for 45 minutes at 60° C. followed by addition of 40 μl MicroScint 20 scintillation fluid, sealed and analyzed by the Packard TopCount reader. […] The competition data was plotted as a percentage inhibition of radioligand specific bound in the absence of test compound (percent of total signal). After correcting for non-specific binding, IC50 values were determined.

human CCR2 [2] = target: T1, human CCR2; experiment: Human peripheral blood mononuclear cell binding (CCR2 binding), 125I-human MCP-1 tracer; parameters: hPBMCs were isolated from human leukopak (Biological Specialty Inc.); endogenous in cells; host or cells: human peripheral blood mononuclear cells from leukopak (Biological Specialty Inc.); conditions: hPBMCs, 125I-MCP-1
Procedure: See also: Yoshimura et al., J. Immunol. 1990, 145, 292. The human CCR2 binding assay was established with human peripheral blood mononuclear cells (hPBMCs) using ^125I-human MCP-1 as the tracer ligand. hPBMCs were isolated from human leukopak (Biological Specialty Inc.) using a standard protocol with Ficoll-Hypaque (Mediatech Cellgro). Isolated hPBMCs were washed and diluted to 1×10^7/ml in binding buffer (RPMI-1640, 0.1% BSA, 20 mM Hepes, pH 7.4). ^125I-MCP-1 (NEN/Perk Elmer) was diluted to 0.45 nM in binding buffer. The compound was diluted in binding buffer at 3-fold the final concentrations used in the binding assay. The binding assay was performed using a 96-well filter plate (Millipore). Total ^125I-MCP-1 binding was assessed as follows: to each reaction of a total volume of 150 μl were added 5×10^5 cells, 0.15 nM […], and compound such that the final concentration ranged from 0 to 100 nM. The plate was incubated at room temperature for 30 minutes followed by three washes with RPMI-1640, 0.1% BSA, 0.4 M NaCl, 20 mM Hepes, pH 7.4 using a vacuum manifold filtration (Millipore). After washing, the plate was air-dried for 60 minutes at room temperature. This was followed by adding 25 μl of Microscint 20 into each well. The plate was sealed and counted on the Trilux for 1 minute. Non-specific binding was determined in the presence of 300 nM cold MCP-1 (PeproTech Inc.). Specific 1-MCP-1 was calculated as the difference between total and non-specific binding. All conditions were tested in duplicate.

hERG [3] = target: T2, hERG (Homo sapiens, UniProt Q12809); experiment: hERG flux (Tl+ flux, FLIPR) in HEK293 cells; format: cell-based; conditions: HEK293 cells stably expressing hERG
T2 construct: expressed in transfected cells
T2 sequence (Q12809 whole entry): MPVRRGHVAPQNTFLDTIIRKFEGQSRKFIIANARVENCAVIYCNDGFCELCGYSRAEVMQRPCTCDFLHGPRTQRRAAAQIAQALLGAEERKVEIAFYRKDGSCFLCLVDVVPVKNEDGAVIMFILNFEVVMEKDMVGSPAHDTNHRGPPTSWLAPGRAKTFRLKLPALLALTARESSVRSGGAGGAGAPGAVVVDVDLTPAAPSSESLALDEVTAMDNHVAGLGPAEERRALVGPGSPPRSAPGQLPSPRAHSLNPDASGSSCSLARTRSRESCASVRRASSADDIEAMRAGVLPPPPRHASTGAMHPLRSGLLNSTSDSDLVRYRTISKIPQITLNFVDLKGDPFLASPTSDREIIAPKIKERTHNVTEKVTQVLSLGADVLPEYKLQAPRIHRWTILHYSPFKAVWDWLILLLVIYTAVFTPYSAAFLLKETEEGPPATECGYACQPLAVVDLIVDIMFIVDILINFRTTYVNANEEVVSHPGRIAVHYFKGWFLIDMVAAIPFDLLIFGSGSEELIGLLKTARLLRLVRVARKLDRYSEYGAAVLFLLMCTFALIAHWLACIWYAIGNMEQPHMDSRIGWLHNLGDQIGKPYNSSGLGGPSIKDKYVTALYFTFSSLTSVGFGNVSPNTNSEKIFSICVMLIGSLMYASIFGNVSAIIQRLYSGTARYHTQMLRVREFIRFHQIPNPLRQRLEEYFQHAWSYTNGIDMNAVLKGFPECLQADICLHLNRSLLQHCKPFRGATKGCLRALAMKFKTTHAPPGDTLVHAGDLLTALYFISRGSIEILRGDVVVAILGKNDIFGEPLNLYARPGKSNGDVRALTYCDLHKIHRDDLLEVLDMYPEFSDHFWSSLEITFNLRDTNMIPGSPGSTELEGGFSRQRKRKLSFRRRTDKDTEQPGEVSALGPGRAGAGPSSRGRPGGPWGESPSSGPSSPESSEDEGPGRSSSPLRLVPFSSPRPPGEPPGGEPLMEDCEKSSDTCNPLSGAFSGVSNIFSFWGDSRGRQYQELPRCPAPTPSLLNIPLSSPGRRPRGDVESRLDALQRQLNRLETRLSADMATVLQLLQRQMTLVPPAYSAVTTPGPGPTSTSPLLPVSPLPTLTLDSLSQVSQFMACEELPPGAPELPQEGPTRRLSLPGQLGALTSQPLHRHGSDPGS
Procedure: HEK293 cells stably-expressing hERG channels were grown (37° C., 5% CO2) in Dulbecco's Modified Eagle's Media supplemented with 10% Sigma fetal bovine serum, non-essential amino acids, 2 mM L-glutamine and 500 μg/ml G418, at incubator.
A 2 mM stock of BTC-AM dye (Molecular Probes, Eugene, Oreg.) was prepared in 100% DMSO and then added 1:1 to 10% (w/v) pluronic acid in DMSO on the day of assay. The dye was then diluted in hERG external EP buffer (140 mM NaCl, 4.0 mM KCl, 1.8 mM CaCl2, 1.0 mM MgCl2, 10 mM HEPES, pH 7.3 and 10 mM glucose; all buffer components obtained from Sigma Chemical). […] Cells are incubated at 21° C. for 45 minutes.
These compounds were then serially-diluted at a 1:2 ratio in DMSO in columns 1-10 and 11-20 of a 384-well plate. Assay-ready plates were generated by stamping 2.5 μl from the DMSO serially diluted plate, which was prepared on the Velocity 11 BioCel. Aqueous plates were created by adding 48 μl of EP buffer and then were diluted 30-45 minutes before the assay was read on the FLIPR. […] Final DMSO concentration in the assay is 1%. Assay-ready aqueous plates were prepared and diluted on a Cybio liquid handler.
Data collection proceeded every second for 48 seconds, and then continued every three seconds for an additional 2 minutes.
The dynamic range of the assay was determined from blanks and totals wells. The totals wells (columns 21 and 22) define maximal hERG activation for the plate (no test compound present), and the blanks wells (columns 23 and 24) define 100% hERG inhibition. […] Raw data points in each sample well were first corrected for cell/signal variation, negative control (blanks) background, and normalized to the positive controls (totals) using the online FLIPR software. Test compound concentration response curves for the hERG Tl^+ flux data were then fit using Excel Fit (ID Business Solutions Limited, Surrey, UK) with a single-site logistic equation, Y=A+((B−A)/1+((C/X)^D))) where A=maximal inhibition. Data were analyzed by fitting maximum amplitudes of change in fluorescence for Tl^+ flux for a given condition of test compound.

[4] = Parallel Artificial Membrane Permeability Assay (PAMPA); format: in vitro ADME; conditions: apical and basolateral pH 7.4
Procedure: All experiments are conducted in triplicate determinations.

hERG [5] = target: T2, hERG; experiment: hERG patch clamp (whole-cell, HEK-293); format: cell-based; conditions: for inhibition at 10000 nM: pH 7.4, 10,000 nM; for inhibition at 30000 nM: pH 7.4, 30,000 nM
[6] = target: human cardiac sodium channel, SCN5A (Nav1.5) (Homo sapiens, UniProt Q14524); experiment: Sodium channel patch clamp (whole-cell, HEK-293); format: cell-based; conditions: HEK-293 cells expressing human cardiac sodium channel SCN5A, 30,000 nM, read-out: Na+ channel patch clamp (% inhibition)
Sequence of human cardiac sodium channel, SCN5A (Nav1.5) (Q14524 whole entry): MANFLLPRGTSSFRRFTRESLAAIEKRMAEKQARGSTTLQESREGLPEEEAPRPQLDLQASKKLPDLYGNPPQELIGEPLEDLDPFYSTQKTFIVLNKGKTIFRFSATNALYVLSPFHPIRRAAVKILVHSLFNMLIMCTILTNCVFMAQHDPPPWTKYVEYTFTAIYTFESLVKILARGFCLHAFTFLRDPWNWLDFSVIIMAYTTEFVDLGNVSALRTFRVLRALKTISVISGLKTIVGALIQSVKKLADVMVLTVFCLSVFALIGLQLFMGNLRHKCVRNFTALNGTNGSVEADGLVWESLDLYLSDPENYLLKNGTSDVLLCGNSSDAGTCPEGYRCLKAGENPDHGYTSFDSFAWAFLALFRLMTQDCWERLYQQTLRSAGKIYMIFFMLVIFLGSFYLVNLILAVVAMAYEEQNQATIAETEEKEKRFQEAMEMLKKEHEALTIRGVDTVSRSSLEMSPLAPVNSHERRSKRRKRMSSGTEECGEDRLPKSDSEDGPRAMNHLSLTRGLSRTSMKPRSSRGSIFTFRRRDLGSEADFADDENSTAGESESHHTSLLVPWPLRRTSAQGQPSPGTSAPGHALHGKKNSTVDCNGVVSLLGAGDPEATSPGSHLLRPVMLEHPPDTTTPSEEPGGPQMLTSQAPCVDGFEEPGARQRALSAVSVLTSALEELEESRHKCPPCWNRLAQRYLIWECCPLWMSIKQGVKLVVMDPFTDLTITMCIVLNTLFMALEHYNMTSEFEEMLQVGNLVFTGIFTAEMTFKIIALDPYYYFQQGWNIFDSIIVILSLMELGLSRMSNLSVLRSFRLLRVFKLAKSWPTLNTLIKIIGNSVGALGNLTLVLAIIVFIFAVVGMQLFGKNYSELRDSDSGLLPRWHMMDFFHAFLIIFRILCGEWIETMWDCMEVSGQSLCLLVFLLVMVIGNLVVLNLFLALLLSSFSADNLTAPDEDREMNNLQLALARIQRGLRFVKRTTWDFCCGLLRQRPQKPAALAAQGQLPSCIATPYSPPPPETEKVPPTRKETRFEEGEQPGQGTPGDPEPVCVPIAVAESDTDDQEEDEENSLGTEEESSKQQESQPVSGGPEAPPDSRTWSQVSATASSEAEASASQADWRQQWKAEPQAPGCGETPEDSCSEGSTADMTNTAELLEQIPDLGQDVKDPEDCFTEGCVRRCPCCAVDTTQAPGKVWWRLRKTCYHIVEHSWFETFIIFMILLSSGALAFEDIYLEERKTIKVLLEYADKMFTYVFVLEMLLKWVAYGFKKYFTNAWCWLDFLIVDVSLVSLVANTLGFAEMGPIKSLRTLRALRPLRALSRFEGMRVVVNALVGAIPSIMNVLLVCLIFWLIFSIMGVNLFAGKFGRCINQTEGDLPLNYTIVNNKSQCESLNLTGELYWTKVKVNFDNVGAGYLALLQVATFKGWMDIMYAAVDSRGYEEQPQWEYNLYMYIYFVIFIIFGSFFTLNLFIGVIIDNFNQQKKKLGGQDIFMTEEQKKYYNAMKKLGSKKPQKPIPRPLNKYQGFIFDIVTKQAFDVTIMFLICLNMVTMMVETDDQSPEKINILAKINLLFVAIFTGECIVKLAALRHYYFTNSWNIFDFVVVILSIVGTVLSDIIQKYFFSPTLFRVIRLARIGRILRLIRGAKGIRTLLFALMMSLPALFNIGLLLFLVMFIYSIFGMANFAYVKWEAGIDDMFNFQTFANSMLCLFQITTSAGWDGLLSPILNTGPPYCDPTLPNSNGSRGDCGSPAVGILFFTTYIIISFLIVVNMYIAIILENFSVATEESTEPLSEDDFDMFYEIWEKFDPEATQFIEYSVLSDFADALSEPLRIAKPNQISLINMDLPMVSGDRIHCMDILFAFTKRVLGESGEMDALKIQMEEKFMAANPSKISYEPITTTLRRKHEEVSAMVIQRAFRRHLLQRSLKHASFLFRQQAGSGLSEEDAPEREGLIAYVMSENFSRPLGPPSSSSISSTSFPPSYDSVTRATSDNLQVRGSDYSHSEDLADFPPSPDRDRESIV
Procedure: The compound was tested at a protein-free aqueous buffer. For determining steady state inhibition, sodium currents were elicited every 5 seconds using the following voltage protocol: cells were held at a potential of −90 mV and stepped to −20 mV for 60 ms. Effects were calculated by measuring inhibition of peak current during the test pulse to −20 mV. Rate-dependence of inhibition was assessed by stimulation at frequencies of 1 Hz and 4 Hz.

human CCR2 [7] = target: T1, human CCR2; experiment: CCR2 chemotaxis (MCP-1-induced, THP-1 cells); format: cell-based; parameters: hPBMCs were isolated from human leukopak (Biological Specialty Inc.); endogenous in cells; host or cells: human peripheral blood mononuclear cells from leukopak (Biological Specialty Inc.)
Procedure: The human CCR2 chemotaxis assay was conducted with the human monocytic cell line, THP-1. THP-1 cells were first labeled with the fluorescent dye Calcein-AM in phenol red-free, BSA-free RPMI-1640 (pH 7.4) at 37° C. for 30 minutes with gentle mixing every 15 minutes. The labeled cells were then washed and re-suspended at 1×10^5/ml in chemotaxis buffer (phenol red-free RPMI-1640, 0.1% BSA, pH 7.4). The test compound was diluted in chemotaxis buffer such that the final assay concentration ranged from 0.01 nM to 1 μM. […] To perform the assay, an equal volume of test compound dilutions was mixed with an equal volume of labeled THP-1 cells (Mixture 1), and an equal volume of test compound dilutions was mixed with an equal volume of diluted MCP-1 ligand (Mixture 2). Both mixtures were incubated independently at 37° C. for 10 minutes followed by gentle mixing. MCP-1-induced chemotaxis was then measured in a chemotaxis plate (Becton Dickinson) by placing 50 μl of Mixture 1 in the top chamber and 225 μl of Mixture 2 in the bottom chamber. The plate was covered with a lid and incubated at 37° C. for 30 minutes. 30 minutes later, the plate was read on a Cytofluor. All conditions were tested in duplicate. […] The inhibition achieved by graded concentrations of test compound was calculated as a percentage of the compound-free MCP-1 control.

[8] = Single-dose pharmacokinetics in rats; format: in vivo; conditions: male, Sprague-Dawley, plasma, rat, dose per compound (mg/kg)
Procedure: (1500-2000×g) to obtain plasma. […] Plasma samples, obtained by centrifugation at 4° C.

[9] = Single-dose pharmacokinetics in monkeys; format: in vivo; conditions: male, cynomolgus monkey, plasma, dose per compound (mg/kg)
Description: (1500-2000×g) to obtain plasma.

[10] = metabolite examples, read-out: PBMC Binding IC50
[11] = figure in parentheses in the cell not copied (count of determinations), read-out: CCR2 Binding IC50

Compound	IC50 (human CCR2 [1]) [nM]	IC50 (human CCR2 [2]; [10]) [nM]	Papp at 4 h, 100 µM [4] [×10⁻⁶ cm/s]	IC50 (human CCR2 [2]; [11]) [nM]	IC50 (human CCR2 [7]) [nM]	IC50 (hERG [3]) [nM]	inhibition at 10000 nM (hERG [5]) [%]	inhibition at 30000 nM (hERG [5]) [%]	inhibition at 30000 nM [6] [%]	other results
CC(=O)N[C@@H]1C[C@H](N)CC[C@@H]1N1CC[C@H](Nc2ncnc3ccc(C(F)(F)F)cc23)C1=O [Example 4, N-((1R,2S,5R)-5-amino-2-((3S)-2-oxo-3-((6-(trifluoromethyl)-4-quinazolinyl)amino)-1-pyrrolidinyl)cyclohexyl)acetamide]	4.22 ± 1.22	3.46 ± 1.1								
CC(=O)N[C@@H]1C[C@H](N(C)C(C)C)CC[C@@H]1N1CC[C@H](Nc2nc[n+]([O-])c3ccc(C(F)(F)F)cc23)C1=O [Example 5, N-((1R,2S,5R)-5-(isopropyl(methyl)amino)-2-((3S)-3-((1-oxido-6-(trifluoromethyl)-4-quinazolinyl)amino)-2-oxo-1-pyrrolidinyl)cyclohexyl)acetamide]	21.3	27.5 ± 1.4								
CC(=O)N[C@@H]1C[C@H](NC(C)C)CC[C@@H]1N1CC[C@H](Nc2nc[n+]([O-])c3ccc(C(F)(F)F)cc23)C1=O [Example 6, N-((1R,2S,5R)-5-(isopropylamino)-2-((3S)-3-((1-oxido-6-(trifluoromethyl)-4-quinazolinyl)amino)-2-oxo-1-pyrrolidinyl)cyclohexyl)acetamide]	139									

Second part, led by results:

IC50 (human CCR2 [1]) [nM]	IC50 (human CCR2 [2]; [10]) [nM]	Papp at 4 h, 100 µM [4] [×10⁻⁶ cm/s]	IC50 (human CCR2 [2]; [11]) [nM]	IC50 (human CCR2 [7]) [nM]	Compound	IC50 (hERG [3]) [nM]	inhibition at 10000 nM (hERG [5]) [%]	inhibition at 30000 nM (hERG [5]) [%]	inhibition at 30000 nM [6] [%]	other results
		32.6 ± 22.1	1.72 ± 0.54	2.85	CC(C)N(C)[C@@H]1CC[C@H](N2CC[C@H](Nc3ncnc4ccc(C(F)(F)F)cc34)C2=O)[C@H](NC=O)C1 [Example 7, N-((1R,2S,5R)-5-(isopropyl(methyl)amino)-2-((S)-2-oxo-3-(6-(trifluoromethyl)quinazolin-4-ylamino)pyrrolidin-1-yl)cyclohexyl)formamide]	> 80000	12	29	10	
		26.6	1.69 ± 0.67	0.35	CC(=O)N[C@@H]1C[C@H](N(C)C(C)C)CC[C@@H]1N1CC[C@H](NC(=O)c2cccc(C(C)(C)C)n2)C1=O [Example 9, N-((3S)-1-((1S,2R,4R)-2-acetamido-4-(isopropyl(methyl)amino)cyclohexyl)-2-oxo-3-pyrrolidinyl)-6-tert-butyl-2-pyridinecarboxamide]	> 80000	26	41	6	
		22.8	5.18 ± 1.98	1.6 ± 0.42	CCC(=O)N[C@@H]1C[C@H](N)CC[C@@H]1N1CC[C@H](Nc2ncnc3ccc(C(F)(F)F)cc23)C1=O [Example 10, N-((1R,2S,5R)-5-amino-2-((3S)-2-oxo-3-((6-(trifluoromethyl)-4-quinazolinyl)amino)-1-pyrrolidinyl)cyclohexyl)propanamide]	> 80000		33	35	clearance ([8]; IV): 45 mL/min/kg; AUC ([8]; PO): 4.23 µM·h; bioavailability ([8]; oral bioavailability): 57%; clearance ([9]; IV): 21 mL/min/kg; AUC ([9]; PO): 1.08 µM·h; bioavailability ([9]; oral bioavailability): 67%
